Test results from US11628179B2, “Compounds for treating and preventing extracellular histone mediated pathologies” (priority 2017, dated 2023).
Where “and” joins values, the source holds several entries; their conditions need not be identical. Identical values can stand only once.

Assays:
human platelets = experiment: Histone-induced platelet aggregation; format: cell-based; details: compounds added prior to histones 150 μg/mL
[1] = test system: Human platelets in whole blood; experiment: Histone-induced platelet degranulation (ATP release); format: cell-based; details: compounds added prior to histones 400 μg/mL
mice = experiment: In-vivo histone toxicity assay, organ damage markers at 4 hr; design: species or system mouse; details: 6.25, 25 and 100 mg/kg i.p. 10 min prior to histones 50 mg/kg i.v.; blood at 4 hr
human liver microsomes = experiment: Phase I metabolism in human liver microsomes; details: 1 μM, 1 h incubation, NADPH, 0.3 mg/ml microsomes
Protocol: (§1) A stock concentration of 25 μM mCBS dissolved in 50% methanol in water was added to the reaction tubes (10 μL). […] Samples were then vortex-mixed and centrifuged for 10 min at 14,000 rpm. Half of the samples (375 μl) were transferred to glass tubes and evaporated under a stream of nitrogen and at 37° C. Samples were then reconstituted in mobile phase A (250 μL). The final concentration of mCBS was 1 μM in the incubation medium.
(§2) The reaction mixtures were incubated for 1 hour with sampling in triplicate at 0, 15, 30, 45 and 60 min time points. A negative control (no NADPH) was used in parallel with the study samples. A positive control; midazolam, 25 μM (10 μL) was incubated in the same condition for 1 h. The final concentration of midazolam was 1 μM in the incubation medium

rat liver microsomes = experiment: Phase I metabolism in rat liver microsomes; details: 1 μM, 1 h incubation, NADPH, 0.3 mg/ml microsomes
Protocol: as §1, §2

dog liver microsomes = experiment: Phase I metabolism in dog liver microsomes; details: 1 μM, 1 h incubation, NADPH, 0.3 mg/ml microsomes
Protocol: as §1, §2

Solubility in vehicle = format: physicochemical; details: in water/aqueous
Protocol: The STX studies described below were carried out inter alia to provide a preliminary understanding of the toxicity and PK profile of β-O-methyl cellobioside sulfate compounds such as mCBS.Na utilised in the present invention.

Sprague Dawley rats = test system: Sprague Dawley rats
Protocol: This study examined acute toxicity from single IV administration of mCBS in rats with doses up to 1000 mg/kg.
The acute toxicity of β-O-methyl cellobioside sulfate (mCBS) was assessed in Sprague Dawley rats following intravenous administration of a single bolus dose. A total of five groups of n=3 adult female rats were treated with 10, 30, 100, 300 and 1000 mg/kg doses of mCBS test item in the form of the sodium salt (mCBS.Na) in this dose range finding study. […] The rats were then observed for 7 days prior to termination without necropsy.

Sprague-Dawley rats = details: 5575 mg/kg/day of mCBS (free base), continuous IV infusion 7 days
Protocol: The objective of these studies was to determine the toxicity of the test item, mCBS, when administered by continuous (24 hours/day) intravenous infusion through a surgically implanted catheter for 7 consecutive days to Sprague-Dawley rats.
The test and control item dose formulations of mCBS (in the form of the heptasodium salt mCBS.Na) were administered to groups of rats by continuous (24 hours/day) intravenous infusion for 7 consecutive days as described in the Table 14 below.
Parameters monitored during this study included mortality, clinical observations, body weights and food consumption. In addition, hematology, coagulation and clinical chemistry parameters were evaluated on Day 9. Blood samples were collected from the animals at timepoints relative to the start of the infusion for analysis of test item concentration in plasma. At termination (Day 9), all animals were euthanized and subjected to a gross necropsy examination. Organ weights were measured on selected organs and a selected list of tissues, including gross lesions, were retained and prepared for microscopic evaluation.

[2] = Stability of mCBS vs CBS in formulated clinical material (HPLC); format: physicochemical; details: formulated clinical material in phosphate buffer, 5±3° C., 25±2° C./60% RH, 40±2° C./75% RH
Protocol: Stability studies were carried out at 5±3° C., 25±2° C./60% RH and 40±2° C./75% RH ° C. conditions. Levels of both mCBS and cellobiose sulfate (CBS) were tracked in formulated clinical material (i.e. mCBS in phosphate buffer) via HPLC.

[3] = mCBS vs CBS levels in bulk powder stored at −20° C. (CAD); format: physicochemical
Protocol: Table 2b compares mCBS vs CBS levels in a representative batch of bulk powder when stored at −20° C. over 24 months. T is for time in months. T=0 or T0 represents analytical results carried out on completion of manufacture. Subsequent analysis indicated are relative to the initial analysis of the drug powder or formulation (e.g. […] Analytical method employing CAD (Charged Aerosol Detector) was used to measure the level of mCBS purity and its impurities and expressed as CAD %.

[4] = mCBS vs CBS levels in phosphate buffered pH 7.5 clinical trial formulation stored at 2-8° C. (CAD); format: physicochemical
human RBCs [5] = experiment: Histone-induced RBC aggregation (flow cytometry autofluorescence, SEM); format: cell-based; details: 0-200 μg/mL added prior to 400 μg/mL histones
human RBCs [6] = experiment: Histone-induced RBC fragility / lysis under shear; format: cell-based; details: 0-200 μg/mL prior to 400 μg/mL histones 60 min; 100 mm/s, 40× repetitions
[7] = Lipid bilayer assay (histone rupture of bilayers)
Protocol: Lipid bilayer assays. Artificial lipid bilayers, prepared as previously described (Rebbeck, R. T. et al. The beta (1a) subunit of the skeletal DHPR binds to skeletal RyR1 and activates the channel via its 35-residue C-terminal tail. Biophys J 100, 922-930, doi:10.1016/j.bpj.2011.01.022 (2011).), separated symmetrical 150 mM or 250 mM KCl (pH ˜5.5) solutions. Histones (1 μM, 15.2 μg ml^−1) were added to bilayers alone or after 0.5-3 h incubation with 10 μM CBS (3.5 μg ml^−1) or 10 μM MTS (5.1 μg ml^−1) at −20° C. Current was recorded continuously after histone addition until the bilayers broke or the experiment was terminated.
To examine this possibility artificial lipid bilayers were prepared and their susceptibility to histone rupture detected by changes in current across the bilayers.

Wistar rats [8] = experiment: Rat caecal ligation and puncture (CLP), severe sepsis; format: in vivo
Protocol: Rat caecal ligation and puncture (CLP) assay for sepsis. The CLP assay was performed in male Wistar rats as previously described (see Hubbard, W. J. et al. Cecal ligation and puncture. Shock 24 Suppl 1, 52-57 (2005).). Test compounds (50 mg kg^−1) dissolved in saline or an equivalent volume of saline only (Control cohort) were administered i.p. 5 min pre-CLP and 5, 10 and 15 h post-op until cessation of the experiment at 20 h. Sham-CLP rats underwent the same procedure, however, the caecum was not ligated or punctured and these rats received saline at the same times as above. At the conclusion of the experimental time period (20 h) or when morbidity required ethical euthanasia, the rats were anaesthetised and blood was collected via cardiac puncture into EDTA for subsequent analysis of liver (ALT) and kidney (creatinine) function by the Department of Pathology, The Canberra Hospital. The propensity for clots to form within the blood samples of the saline treated control CLP animals (despite the presence of EDTA) prevented successful analysis of plasma samples from all animals.

Wistar rats [9] = experiment: Rat cardiac IRI model; format: in vivo; details: 30 mg kg−1 into left ventricle 5 min prior to reperfusion
Protocol: Rat cardiac IRI model. […] Male Wistar rats were anaesthetised with isofluorane, intubated via tracheostomy and ventilated with a tidal volume of 1 ml 150 g^−1 and a respiratory rate of 65 breaths min^−1. Supplemental oxygen was delivered at a FiO2 of ˜30%. A left hemi-thoracotomy was performed to enable visualisation of the left ventricle. The left coronary arterial plexus (LCA) was occluded using an atraumatic snare for 30 min prior to reperfusion for 30 min. Ischemia was confirmed by myocardial hyperaemia. The test compounds (30 mg kg^−1) or an equivalent volume (200 μl) of saline were injected into the lumen of the left ventricle (confirmed with aspiration) 5 min prior to the release of the snare for the reperfusion phase.
At the conclusion of reperfusion (30 min), Thioflavin S (1 ml 200 g^−1 of body weight) was slowly injected into the lumen of the left ventricle, to define the territory of microvascular obstruction (MVO) within the ischemic zone (IZ). The IZ territory was determined by the re-occlusion of the atraumatic snare and infusion of blue microspheres into the left ventricle (Unisperse Blue, BASF), distributed within solutions via ultrasonication using a CD-6800 (Unisonics) sonicator. […] Planimetry (Image J, Freeware) was used to quantify the areas of the IZ, MVO and necrosis.

C57BL/6 mice = experiment: Murine deep vein thrombosis (DVT) model, histone-mediated; format: in vivo, mouse; details: CBS 50 mg/kg i.v. 5 min after histones 10 mg/kg i.v., 48 h
Protocol: Murine deep vein thrombosis (DVT) model. The procedure used is largely as previously described (see Brill, A. et al. Neutrophil extracellular traps promote deep vein thrombosis in mice. J Thromb Haemost 10, 136-144, doi: 10.1111/j.1538-7836.2011.04544.x (2012)). […] The peritoneum and skin were closed following which all mice received an i.v. injection of histones via the tail vein (10 mg kg^−1) or an equivalent volume of saline followed 5 min later by an i.v. injection of test compounds (50 mg kg^−1) or saline. Mice were monitored for 48 h after which they were re-anesthetised, re-opened and any thrombi that had developed distal to the IVC stenosis were removed for analysis. Sham operated control animals received laparotomy and 90% ligation of the IVC, however the ligation was removed immediately after occlusion of the IVC.

whole blood coagulation = experiment: ROTEM whole blood coagulation analysis (anticoagulant effect of compounds); details: NATEM assay, 50 and 100 μg/mL

Molecule: O=C[C@H](O)[C@@H](O)[C@H](O[C@@H]1O[C@H](CO)[C@@H](O)[C@H](O)[C@H]1O)[C@H](O)CO [CB, cellobiose]
- histone-induced platelet aggregation (human platelets): no inhibitory activity
- histone-induced platelet degranulation (ATP release) [1]: no inhibitory activity
- protection from histone-induced organ damage (LDH, ALT, creatinine) (mice): inactive

Molecule: Cc1ncc2n1-c1ccc(Cl)cc1C(c1ccccc1F)=NC2 [midazolam]
- phase I metabolic stability (human liver microsomes): almost completely metabolised
- phase I metabolic stability (rat liver microsomes): almost completely metabolised
- phase I metabolic stability (dog liver microsomes): almost completely metabolised

Molecule: Sodium β-O-Methyl Cellobioside Sulfate [mCBS.Na]
- Solubility in Vehicle (Solubility in vehicle): ~250 mg/mL in water/aqueous
- MTD estimate from potency assessment, sodium salt (Sprague Dawley rats; IV bolus single and 7-day studies, corrected for potency): ~745 mg/kg
- maximum tolerated dose (MTD) (Sprague Dawley rats; single IV bolus, female rats, 7 days observation, dose as sodium salt): 1000 mg/kg
- mortality (Sprague-Dawley rats): death of one female

Molecule: cellobiose sulfate [CBS]
- level relative to starting amount (T=0) over time [2]: drops very rapidly and is almost gone by around 3 months
- stability when stored in powder ([3]; 24 months): stable
- level in bulk powder ([3]; T0 (months)): 0.23 CAD %
- level in bulk powder ([3]; T1): 0.25 CAD %
- level in bulk powder ([3]; T3): 0.28 CAD %
- level in bulk powder ([3]; T6): 0.32 CAD %
- level in bulk powder ([3]; T9): 0.36 CAD %
- level in bulk powder ([3]; T12): 0.36 CAD %
- level in bulk powder ([3]; T18): 0.36 CAD %
- level in bulk powder ([3]; T24): 0.29 CAD %
- level in phosphate buffered pH 7.5 formulation ([4]; 2-8° C., T0 (months)): 0.25 CAD %
- level in phosphate buffered pH 7.5 formulation ([4]; 2-8° C., T2): 0.03 CAD %
- level in phosphate buffered pH 7.5 formulation ([4]; 2-8° C., T3): 0.07 CAD %
- level in phosphate buffered pH 7.5 formulation ([4]; 2-8° C., T7): 0.03 CAD %
- level in phosphate buffered pH 7.5 formulation ([4]; 2-8° C., T10): 0.04 CAD %
- level in phosphate buffered pH 7.5 formulation ([4]; 2-8° C., T13): 0.04 CAD %
- level in phosphate buffered pH 7.5 formulation ([4]; 2-8° C., T19): <0.03 CAD %
- stability when stored in aqueous buffered solution ([4]; 2-8° C., over 18 months): highly unstable
- level reduced to (detection limit) ([4]; aqueous buffered solution, within 3-6 month of storage at 2-8° C.): 0.03 CAD %
- inhibition of histone-induced RBC aggregation (human RBCs [5]): inhibit histone-induced RBC aggregation in a dose dependent manner
- inhibition of histone-induced RBC lysis under shear (human RBCs [6]): inhibit histone-induced lysis under shear in a dose-dependent manner
- histone-induced platelet aggregation (human platelets): significantly reduced
- histone-induced platelet degranulation (ATP release) [1]: significantly reduced
- incidence of rapid bilayer rupture ([7]; histones 1 μM + CBS, 3 of 52 bilayers, within 0.3 to 0.5 min): 5.8%
- average bilayer lifetime ([7]; histones 1 μM in the presence of CBS 10 μM): 18 ± 4 min and 36 ± 5 min
- protection from histone-induced organ damage (LDH, ALT, creatinine) (mice): protects animals from histone-mediated injury
- high ALT and creatinine levels (liver and kidney damage) (Wistar rats [8]; CBS treated animals): not seen
- mortality (Wistar rats [8]; CBS treatment group vs controls): no mortalities
- area of microvascular obstruction (Wistar rats [9]): significantly reduced
- reduction of myocardial necrosis in the ischemic zone (Wistar rats [9]): 50%
- histone-mediated deep vein thrombosis (C57BL/6 mice): almost totally inhibited

Molecule: melezitose sulfate
- clot formation (whole blood coagulation): No clotting was detected
- clot formation (whole blood coagulation; listed as melezitose): no clot was detected
